We go through 6 compounds from patent publication US9663548B2, “10-α/β-D-arabinofuranosyl-undecenes as potential anti-mycobacterial agents and process for the preparation thereof” (priority 2011, dated 2017).

The assay concerns Mycobacterium bovis BCG. The experiment in a line: microbe, parasite or virus in culture. It is filed as cell-based. The note with it: for IC50: M. bovis BCG growth, 8 days incubation; for inhibition at 1 µg/mL: read-out: % Inhibition of growth of Mycobacterium Bovis BCG, at 1 μg/ml concentration.
The mark [1] stands for this setting: Mycobacterium tuberculosis variant bovis BCG, BCG, 192 h.
Where [2] appears, read: Mycobacterium tuberculosis variant bovis BCG, BCG.

Each structure is given as a SMILES string. Values after ≈ are worked out from the molar mass of the structure shown.

Consider `C=CCCCCCCCCCC1OC(CO)C(O)C1O` (stereo not drawn) [Compound 1], for which, under setting [1], the MIC90 is 15 µg/mL (≈ 52.4 µM) and inhibition was half-maximal at 1.1 µg/mL (≈ 3.84 µM) (IC50). The inhibition at 1 µg/mL under setting [2] stood at 48%.
As to `C=CCCCCCCCCC[C@H]1O[C@H](CO)[C@@H](O)[C@@H]1O` [Compound 2], the IC50 (usually the concentration that gives 50% inhibition) by setting is: (listed as α-C-glycoside) 0.2 µg/mL (≈ 0.698 µM); under setting [1], 0.19 µg/mL (≈ 0.663 µM). For the same compound, the MIC90 under setting [1] came out at 1.6 µg/mL (≈ 5.59 µM). The inhibition at 1 µg/mL under setting [2] is 85%.
Compound `C=CCCCCCCCCCC1OC(COC2OC(CO)C(O)C2O)C(O)C1O` (stereo not drawn) [Compound 4] yielded an IC50 of 19 µg/mL (≈ 45.4 µM). In addition, the “% Inhibition of growth of Mycobacterium Bovis BCG” value (at 1 μg/ml concentration) was determined as 28%.
Consider `C=CCCCCCCCCCO` [Compound 10-undecenol, 10-undecenol, reference compound], for which, for the setting “FIG. 1d, doses 0.1 to 100 μg/ml”, the “inhibition of M. bovis BCG (control experiment with aglycon)” value was “poor inhibitor”.
Consider `CC[C@@H](CO)NCCN[C@@H](CC)CO` [Ethambutol, ethambutol, reference compound], for which, under setting [1], the MIC90 was determined as 2.9 µg/mL (≈ 14.2 µM) and the 50% inhibitory concentration (IC50) was found to be 0.2 µg/mL (≈ 0.979 µM). Also, under setting [2], the inhibition at 1 µg/mL was 85%.
In turn, `CO[C@H]1/C=C/O[C@@]2(C)Oc3c(C)c(O)c4c(O)c(c(/C=N/N5CCN(C)CC5)c(O)c4c3C2=O)NC(=O)/C(C)=C\C=C\[C@H](C)[C@H](O)[C@@H](C)[C@@H](O)[C@@H](C)[C@H](OC(C)=O)[C@@H]1C` [Rifampicin, rifampicin, reference compound] came in with an IC50 under setting [1] of 0.02 µg/mL (≈ 0.0243 µM). For the setting “Mycobacterium tuberculosis variant bovis BCG, BCG, read-out: % Inhibition of growth of Mycobacterium Bovis BCG, at 0.2 μg/ml”, the inhibition at 0.2 µg/mL came to 99%.
